According to PMC6222329 (Molecules : A Journal of Synthetic Chemistry and Natural …, 2018):

Experiments:
Assay type in all cases: biochemical
[1] = target: T1, AChE (Electrophorus electricus) (Electrophorus electricus, UniProt O42275); assay: AChE inhibition, Ellman's method
T1 construct: purchased Sigma-Aldrich (Steinheim, Germany)
Procedure: (§1) The assay was performed in two steps.
(§2) All enzymes were obtained from Sigma-Aldrich (Steinheim, Germany). Ellman’s reagent and the substrates were obtained from Fluka (Buchs, Switzerland). The chemicals used to prepare the buffer solution were purchased from Merck (Darmstadt, Germany).
(§3) The enzyme inhibitory activities of the synthesized compounds were investigated by applying Ellman’s method. Enzyme solutions were dissolved in gelatin solution (1%; 2.5 units/mL). […] Then, the reaction was initiated by the addition of Ellman’s reagent 5,5′-Dithiobis(2-nitrobenzoic acid) (DTNB; 20 µL/well, 10 mM) and the substrate (10 µL/well, 75 mM). […] The enzyme solution was processed as a control. All readings were adjusted with blank-reading. All assays were performed in four independent wells. […] Absorbance differences between the two readings were taken, and percentage inhibition rates were calculated according to the following formula: % Inhibition=[(A(C)−A(B))−(A(I)−A(B))]/(A(C)−A(B))×100.
(§4) • Blank (B): the well in which the inhibitor compound and substrate were not added; • Control (C): the well where the inhibitor compound was not added; • A(B): the difference in absorbance reading for the blank; • A(C): the difference in absorbance reading for the control; • A(I): the difference in absorbance reading for the inhibitor compounds.

[2] = target: T2, AChE (Human) (Homo sapiens, UniProt P22303); assay: AChE inhibition, Ellman's method
T2 construct: purchased Sigma-Aldrich (Steinheim, Germany)
Procedure: as §1, §2, §3, §4

[3] = target: T3, BChE (Equine) (Equus caballus, UniProt P81908); assay: biochemical
T3 construct: purchased Sigma-Aldrich (Steinheim, Germany)
Procedure: as §1, §2, §3, §4

[4] = target: T4, BChE (Human) (Homo sapiens, UniProt P06276); assay: BChE inhibition, Ellman's method
T4 construct: purchased Sigma-Aldrich (Steinheim, Germany)
Procedure: as §1, §2, §3, §4

[5] = read-out: AChE (Electrophorus electricus) inhibitory activity (%) ± SD
[6] = read-out: AChE (Human) inhibitory activity (%) ± SD
[7] = read-out: BChE (Human) inhibitory activity (%) ± SD

T4 sequence (P06276 29-602): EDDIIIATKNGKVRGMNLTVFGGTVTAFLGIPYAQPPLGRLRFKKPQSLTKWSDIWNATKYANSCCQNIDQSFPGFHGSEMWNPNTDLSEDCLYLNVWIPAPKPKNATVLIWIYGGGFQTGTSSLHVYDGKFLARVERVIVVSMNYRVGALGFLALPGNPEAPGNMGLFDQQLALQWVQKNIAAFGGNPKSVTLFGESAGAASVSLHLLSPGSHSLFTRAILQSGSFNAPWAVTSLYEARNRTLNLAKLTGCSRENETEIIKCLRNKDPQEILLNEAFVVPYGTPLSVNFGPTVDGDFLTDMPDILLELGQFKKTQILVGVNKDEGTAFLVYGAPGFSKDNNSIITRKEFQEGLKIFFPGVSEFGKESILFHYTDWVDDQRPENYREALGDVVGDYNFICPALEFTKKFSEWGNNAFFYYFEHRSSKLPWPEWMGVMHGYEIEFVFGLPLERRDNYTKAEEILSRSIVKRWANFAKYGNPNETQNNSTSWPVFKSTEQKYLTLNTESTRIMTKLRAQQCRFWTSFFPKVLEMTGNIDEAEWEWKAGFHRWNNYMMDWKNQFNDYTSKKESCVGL
T3 sequence (P81908 whole entry): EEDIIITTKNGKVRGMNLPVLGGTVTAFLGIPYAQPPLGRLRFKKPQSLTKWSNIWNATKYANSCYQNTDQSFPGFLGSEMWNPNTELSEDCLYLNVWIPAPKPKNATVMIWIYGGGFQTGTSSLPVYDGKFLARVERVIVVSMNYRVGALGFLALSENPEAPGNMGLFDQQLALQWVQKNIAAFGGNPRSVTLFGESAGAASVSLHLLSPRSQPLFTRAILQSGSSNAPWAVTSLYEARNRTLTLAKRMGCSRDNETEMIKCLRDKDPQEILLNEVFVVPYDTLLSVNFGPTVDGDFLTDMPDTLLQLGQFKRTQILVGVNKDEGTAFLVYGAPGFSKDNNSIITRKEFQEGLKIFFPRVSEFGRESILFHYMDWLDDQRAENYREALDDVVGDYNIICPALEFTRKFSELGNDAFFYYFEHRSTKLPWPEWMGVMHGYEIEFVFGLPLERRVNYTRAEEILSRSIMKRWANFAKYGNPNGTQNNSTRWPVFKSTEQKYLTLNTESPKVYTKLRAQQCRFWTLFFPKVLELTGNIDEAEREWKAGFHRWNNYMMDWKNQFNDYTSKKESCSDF
T2 sequence (P22303 32-614): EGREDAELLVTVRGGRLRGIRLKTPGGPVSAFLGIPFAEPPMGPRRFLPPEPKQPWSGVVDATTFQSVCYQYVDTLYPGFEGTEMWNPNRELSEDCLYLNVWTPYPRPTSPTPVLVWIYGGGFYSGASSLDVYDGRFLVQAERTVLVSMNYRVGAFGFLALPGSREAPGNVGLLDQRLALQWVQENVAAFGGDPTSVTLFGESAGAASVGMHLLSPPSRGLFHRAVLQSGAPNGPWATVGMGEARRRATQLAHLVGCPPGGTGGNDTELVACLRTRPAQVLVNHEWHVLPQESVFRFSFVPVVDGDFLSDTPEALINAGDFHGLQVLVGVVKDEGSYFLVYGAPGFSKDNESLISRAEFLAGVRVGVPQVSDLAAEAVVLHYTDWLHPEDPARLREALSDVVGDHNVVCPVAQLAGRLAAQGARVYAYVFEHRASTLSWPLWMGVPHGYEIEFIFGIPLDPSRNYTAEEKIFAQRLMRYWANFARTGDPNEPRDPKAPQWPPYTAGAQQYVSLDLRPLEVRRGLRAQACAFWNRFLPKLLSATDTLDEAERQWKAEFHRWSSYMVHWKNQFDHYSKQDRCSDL
T1 sequence (O42275 24-633): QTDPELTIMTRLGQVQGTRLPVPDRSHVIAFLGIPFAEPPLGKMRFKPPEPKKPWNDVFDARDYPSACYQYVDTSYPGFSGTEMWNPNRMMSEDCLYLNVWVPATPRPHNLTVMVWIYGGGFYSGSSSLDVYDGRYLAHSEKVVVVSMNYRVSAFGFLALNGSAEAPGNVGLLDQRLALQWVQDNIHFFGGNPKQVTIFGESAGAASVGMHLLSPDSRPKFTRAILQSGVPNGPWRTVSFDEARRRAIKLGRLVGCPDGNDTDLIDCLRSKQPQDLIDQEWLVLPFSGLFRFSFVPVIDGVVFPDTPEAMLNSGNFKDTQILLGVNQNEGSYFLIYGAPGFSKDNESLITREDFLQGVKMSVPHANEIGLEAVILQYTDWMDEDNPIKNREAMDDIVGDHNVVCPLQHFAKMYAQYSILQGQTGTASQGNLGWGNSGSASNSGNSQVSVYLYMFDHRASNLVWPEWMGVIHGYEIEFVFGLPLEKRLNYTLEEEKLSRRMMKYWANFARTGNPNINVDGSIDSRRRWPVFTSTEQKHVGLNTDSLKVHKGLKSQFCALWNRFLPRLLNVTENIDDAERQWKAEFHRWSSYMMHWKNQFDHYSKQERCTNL

## Nc1c2ccccc2nc2ccccc12 [Aminoacridine, 9-aminoacridine, reference compound]
[1]; [5]
  inhibition at 0.001 µM: 16 ± 0.48%
  inhibition at 0.01 µM: 20.4 ± 0.55%
  inhibition at 0.1 µM: 31.6 ± 0.82%
  inhibition at 1 µM: 41.7 ± 0.97%
  inhibition at 10 µM: 59 ± 1.05%
  inhibition at 100 µM: 75.2 ± 1.15%
  inhibition at 1000 µM: 85.2 ± 1.08%
[2]; [6]
  inhibition at 0.001 µM: 16.7 ± 0.37%
  inhibition at 0.01 µM: 21.6 ± 0.42%
  inhibition at 0.1 µM: 35.8 ± 0.67%
  inhibition at 1 µM: 44.3 ± 0.74%
  inhibition at 10 µM: 55.3 ± 0.82%
  inhibition at 100 µM: 78.2 ± 0.89%
  inhibition at 1000 µM: 87.2 ± 0.97%
[3]
  IC50: 233 ± 9 nM
[3]; 10^-3 M, read-out: BChE (Equine) inhibitory activity (%) ± SD
  inhibition at 1000 µM: 91.2 ± 1.2%
[3]; 10^-4 M, read-out: BChE (Equine) inhibitory activity (%) ± SD
  inhibition at 100 µM: 87.3 ± 1.07%
[3]; 10^-5 M, read-out: BChE (Equine) inhibitory activity (%) ± SD
  inhibition at 10 µM: 71.5 ± 1.02%
[3]; 10^-6 M, read-out: BChE (Equine) inhibitory activity (%) ± SD
  inhibition at 1 µM: 56.3 ± 0.97%
[3]; 10^-7 M, read-out: BChE (Equine) inhibitory activity (%) ± SD
  inhibition at 0.1 µM: 42.8 ± 0.63%
[3]; 10^-8 M, read-out: BChE (Equine) inhibitory activity (%) ± SD
  inhibition at 0.01 µM: 30.1 ± 0.48%
[3]; 10^-9 M, read-out: BChE (Equine) inhibitory activity (%) ± SD
  inhibition at 0.001 µM: 24.9 ± 0.5%
[4]
  IC50: 221 ± 7 nM
[4]; [7]
  inhibition at 0.001 µM: 22.7 ± 0.48%
  inhibition at 0.01 µM: 31.9 ± 0.62%
  inhibition at 0.1 µM: 46.8 ± 0.7%
  inhibition at 1 µM: 53.3 ± 0.99%
  inhibition at 10 µM: 74.3 ± 1.08%
  inhibition at 100 µM: 86.1 ± 1.22%
  inhibition at 1000 µM: 90.4 ± 1.04%

## CCN1CCN(C(=S)SCC(=O)Nc2c3ccccc3nc3ccccc23)CC1 [Compound 4c, 2-(9-Acridinylamino)-2-oxoethyl 4-ethylpiperazine-1-carbodithioate]
[1]; 10^-3 M
  AChE (Electrophorus electricus) inhibitory activity (%) ± SD: 50.73±2.21%
[1]; 10^-4 M
  AChE (Electrophorus electricus) inhibitory activity (%) ± SD: 5.11 ± 0.09%
[2]; 10^-3 M
  AChE (Human) inhibitory activity (%) ± SD: 51.25±1.45%
[2]; 10^-4 M
  AChE (Human) inhibitory activity (%) ± SD: 10.28 ± 0.22%
[3]; 10^-3 M
  BChE (Equine) inhibitory activity (%) ± SD: 45.18±0.94%
[3]; 10^-4 M
  BChE (Equine) inhibitory activity (%) ± SD: 22.70 ± 0.70%
[4]; 10^-3 M
  BChE (Human) inhibitory activity (%) ± SD: 50.23±0.88%
[4]; 10^-4 M
  BChE (Human) inhibitory activity (%) ± SD: 20.55 ± 0.61%

## O=C(CSC(=S)N1CCN(c2ccc([N+](=O)[O-])cc2)CC1)Nc1c2ccccc2nc2ccccc12 [Compound 4d, 2-(9-Acridinylamino)-2-oxoethyl 4-(4-nitrophenyl)piperazine-1-carbodithioate]
[1]; 10^-3 M
  AChE (Electrophorus electricus) inhibitory activity (%) ± SD: 55.62±1.14%
[1]; 10^-4 M
  AChE (Electrophorus electricus) inhibitory activity (%) ± SD: 31.64 ± 0.45%
[2]; 10^-3 M
  AChE (Human) inhibitory activity (%) ± SD: 50.46±1.09%
[2]; 10^-4 M
  AChE (Human) inhibitory activity (%) ± SD: 34.71 ± 0.77%
[3]; 10^-3 M
  BChE (Equine) inhibitory activity (%) ± SD: 77.75±1.79%
[3]; 10^-4 M
  BChE (Equine) inhibitory activity (%) ± SD: 40.19 ± 0.49%
[4]; 10^-3 M
  BChE (Human) inhibitory activity (%) ± SD: 80.56±1.51%
[4]; 10^-4 M
  BChE (Human) inhibitory activity (%) ± SD: 45.26 ± 0.60%

## O=C(CSC(=S)N1CCN(c2ccccc2)CC1)Nc1c2ccccc2nc2ccccc12 [Compound 4f, 2-(9-Acridinylamino)-2-oxoethyl 4-phenylpiperazine-1-carbodithioate]
[1]; 10^-3 M
  AChE (Electrophorus electricus) inhibitory activity (%) ± SD: 77.65±2.42%
[1]; 10^-4 M
  AChE (Electrophorus electricus) inhibitory activity (%) ± SD: 4.70 ± 0.27%
[2]; 10^-3 M
  AChE (Human) inhibitory activity (%) ± SD: 74.28±1.04%
[2]; 10^-4 M
  AChE (Human) inhibitory activity (%) ± SD: 8.71 ± 0.62%
[3]; 10^-3 M
  BChE (Equine) inhibitory activity (%) ± SD: 77.60±1.60%
[3]; 10^-4 M
  BChE (Equine) inhibitory activity (%) ± SD: 12.80 ± 0.87%
[4]; 10^-3 M
  BChE (Human) inhibitory activity (%) ± SD: 75.23±1.25%
[4]; 10^-4 M
  BChE (Human) inhibitory activity (%) ± SD: 15.67 ± 0.79%

## CN1CCN(C(=S)SCC(=O)Nc2c3ccccc3nc3ccccc23)CC1 [Compound 4g, 2-(9-Acridinylamino)-2-oxoethyl 4-methylpiperazine-1-carbodithioate]
[1]; 10^-3 M
  AChE (Electrophorus electricus) inhibitory activity (%) ± SD: 26.90±0.83%
[1]; 10^-4 M
  AChE (Electrophorus electricus) inhibitory activity (%) ± SD: 10.44 ± 0.66%
[2]; 10^-3 M
  AChE (Human) inhibitory activity (%) ± SD: 30.85±0.65%
[2]; 10^-4 M
  AChE (Human) inhibitory activity (%) ± SD: 11.30 ± 0.58%
[3]; 10^-3 M
  BChE (Equine) inhibitory activity (%) ± SD: 78.11±2.24%
[3]; 10^-4 M
  BChE (Equine) inhibitory activity (%) ± SD: 33.65 ± 0.89%
[4]; 10^-3 M
  BChE (Human) inhibitory activity (%) ± SD: 80.29±2.40%
[4]; 10^-4 M
  BChE (Human) inhibitory activity (%) ± SD: 35.97 ± 0.80%

## COc1ccc(N2CCN(C(=S)SCC(=O)Nc3c4ccccc4nc4ccccc34)CC2)cc1 [Compound 4h, 2-(9-Acridinylamino)-2-oxoethyl 4-(4-methoxyphenyl)piperazine-1-carbodithioate]
[1]; 10^-3 M
  AChE (Electrophorus electricus) inhibitory activity (%) ± SD: 30.87±1.01%
[1]; 10^-4 M
  AChE (Electrophorus electricus) inhibitory activity (%) ± SD: 15.23 ± 0.69%
[2]; 10^-3 M
  AChE (Human) inhibitory activity (%) ± SD: 35.77±1.62%
[2]; 10^-4 M
  AChE (Human) inhibitory activity (%) ± SD: 18.39 ± 0.57%
[3]; 10^-3 M
  BChE (Equine) inhibitory activity (%) ± SD: 84.02±2.35%
[3]; 10^-4 M
  BChE (Equine) inhibitory activity (%) ± SD: 12.64 ± 0.46%
[4]; 10^-3 M
  BChE (Human) inhibitory activity (%) ± SD: 80.88±2.05%
[4]; 10^-4 M
  BChE (Human) inhibitory activity (%) ± SD: 15.58 ± 0.67%
